Reference: paper PMC2840614 (Bioorganic & medicinal chemistry letters, 2010)
Numbered stars: 1 amine (or outer) side, 2 acyl side, 3 side chain; on linkers, the order of the positions; unused ones are H or OH. Bridge positions count the residues as written; N and C are the ends. Square brackets hold non-standard residues; d marks the D form. Peptide text beside a SMILES is read from it. I, II: the chains in the order shown. Dmt = Cc1cc(O)cc(C)c1C[C@H](N)C(=O)O; Ethylenediamine = C(CN[*:2])N[*:1]; Tic = O=C(O)[C@@H]1Cc2ccccc2CN1

Experiments:
[1] = biological target: T1, δ-opioid receptor (Mus musculus, UniProt P32300); conditions: δ-antagonism in vitro; cited from earlier work
T1 sequence (P32300 whole entry): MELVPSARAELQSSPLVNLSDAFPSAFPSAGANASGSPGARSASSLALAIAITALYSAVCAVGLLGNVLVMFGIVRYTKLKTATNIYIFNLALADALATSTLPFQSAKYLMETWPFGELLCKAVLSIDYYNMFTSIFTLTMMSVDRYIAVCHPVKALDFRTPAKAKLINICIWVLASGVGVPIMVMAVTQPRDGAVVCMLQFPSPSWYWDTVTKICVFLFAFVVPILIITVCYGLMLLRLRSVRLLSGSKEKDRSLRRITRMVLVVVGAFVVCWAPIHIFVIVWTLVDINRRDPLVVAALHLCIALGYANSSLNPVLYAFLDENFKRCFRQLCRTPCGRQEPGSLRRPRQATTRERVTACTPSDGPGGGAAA

[2] = biological target: T1, δ-opioid receptor; test: Effect on deltorphin C stimulated GTPγS binding in NG108-15 cell membranes; format: biochemical; conditions: for GTPγS (pA2)δ: antagonism of deltorphin C stimulated GTPγS binding, NG108-15 cell membranes, NA: not active (>20.000nM)
[3] = biological target: δ-opioid receptor (DOR) (Rattus norvegicus, UniProt P33533); conditions: cited from earlier work; for Ki: read-out: Receptor affinity Ki δ, rat brain membranes
δ-opioid receptor (DOR), sequence (P33533 whole entry): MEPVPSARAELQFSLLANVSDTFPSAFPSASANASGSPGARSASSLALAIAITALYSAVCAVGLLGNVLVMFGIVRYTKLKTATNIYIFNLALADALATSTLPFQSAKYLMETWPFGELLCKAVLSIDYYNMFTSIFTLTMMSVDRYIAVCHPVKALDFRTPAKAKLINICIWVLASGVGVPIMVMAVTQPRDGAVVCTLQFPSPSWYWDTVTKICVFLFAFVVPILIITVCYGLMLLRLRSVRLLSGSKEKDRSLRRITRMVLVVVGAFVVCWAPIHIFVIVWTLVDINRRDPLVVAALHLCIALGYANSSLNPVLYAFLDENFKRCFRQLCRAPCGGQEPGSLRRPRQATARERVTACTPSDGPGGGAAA

[4] = biological target: μ-opioid receptor (MOR) (Rattus norvegicus, UniProt P33535); conditions: cited from earlier work; for Ki: read-out: Receptor affinity Ki μ, rat brain membranes; for Selectivity Kiδ/Kiμ: ratio of binding Ki values
μ-opioid receptor (MOR), sequence (P33535 whole entry): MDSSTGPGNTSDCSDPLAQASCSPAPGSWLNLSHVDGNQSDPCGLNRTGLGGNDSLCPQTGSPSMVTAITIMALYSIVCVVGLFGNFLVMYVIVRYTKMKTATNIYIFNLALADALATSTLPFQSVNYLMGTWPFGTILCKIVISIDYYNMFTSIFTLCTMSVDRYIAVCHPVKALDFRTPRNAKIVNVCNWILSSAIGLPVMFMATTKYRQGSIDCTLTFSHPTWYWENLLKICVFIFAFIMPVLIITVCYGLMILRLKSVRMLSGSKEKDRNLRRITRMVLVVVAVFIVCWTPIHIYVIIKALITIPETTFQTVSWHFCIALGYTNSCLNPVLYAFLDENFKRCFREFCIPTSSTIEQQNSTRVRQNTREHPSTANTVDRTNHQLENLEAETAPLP

[5] = system: μ-opioid receptor; conditions: μ-antagonism in vitro; cited from earlier work
[6] = biological target: T1, δ-opioid receptor; conditions: read-out: MVD IC50; agonism, mouse vas deferens; cited from earlier work
[7] = biological target: μ-opioid receptors (Cavia porcellus, UniProt A0ACM8Q262); conditions: read-out: GPI IC50; agonism, guinea pig ileum; cited from earlier work
μ-opioid receptors, sequence (A0ACM8Q262 1-400): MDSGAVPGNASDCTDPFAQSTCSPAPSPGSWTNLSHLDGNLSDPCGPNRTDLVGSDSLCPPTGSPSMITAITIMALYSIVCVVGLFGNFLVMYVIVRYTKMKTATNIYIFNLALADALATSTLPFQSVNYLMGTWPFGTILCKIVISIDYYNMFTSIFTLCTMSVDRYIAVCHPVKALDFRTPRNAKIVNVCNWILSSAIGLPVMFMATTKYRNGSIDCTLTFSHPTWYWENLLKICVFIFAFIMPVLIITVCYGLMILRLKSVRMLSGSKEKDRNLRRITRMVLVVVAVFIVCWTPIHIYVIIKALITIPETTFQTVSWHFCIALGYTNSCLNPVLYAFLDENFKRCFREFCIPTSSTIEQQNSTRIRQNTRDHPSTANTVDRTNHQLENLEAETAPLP

Question: For Cc1cc(O)cc(C)c1CC(N)C(=O)N1Cc2ccccc2CC1C(=O)NCCCCCCNC(=O)C1Cc2ccccc2CN1C(=O)C(N)Cc1c(C)cc(O)cc1C (stereo not drawn) [1,6-bis[H-Dmt-Tic-NH]hexane], which “pA2 δ” value [1] is on record?
Answer: The value was 10.62.

Question: For Cc1cc(O)cc(C)c1C[C@H](N)C(=O)N1Cc2ccccc2C[C@H]1C(=O)NCCNC(=O)[C@@H]1Cc2ccccc2CN1C(=O)[C@@H](N)Cc1c(C)cc(O)cc1C [compound 9, ethylene-bis(H-Dmt-Tic-NH)] (I: H-[Dmt]-[Tic] / II: H-[Dmt]-[Tic]; linker I:C-II:C via Ethylenediamine), which Kb [2] is on record?
Answer: Its Kb is 0.912 nM.

Question: And the “GTPγS (pA2)δ” value [2]?
Answer: The value was 9.04.

Question: Which results are given for Cc1cc(O)cc(C)c1C[C@@H](C(=O)N[C@H]1Cc2c([nH]c3ccccc23)CN(CC(=O)O)C1=O)N(C)C [compound 8, Me2Dmt-Aia-Gly-OH]?
Answer: Selectivity Kiμ/Kiδ ([3]; ratio of binding Ki values): 132; Ki [3]: 6.64 ± 0.89 nM; Ki [4]: 874 ± 100 nM

Question: Which “pA2 δ” value [1] does the source give for Cc1cc(O)cc(C)c1CC(N)C(=O)N1Cc2ccccc2CC1C(=O)NCCCCNC(=O)C1Cc2ccccc2CN1C(=O)C(N)Cc1c(C)cc(O)cc1C (stereo not drawn) [butylene-bis[Dmt-Tic-NH]] here?
Answer: The value was 10.51.

Question: What about the “pA2 μ” value [5] of the same molecule?
Answer: The value was 6.99.

Question: For Cc1cc(O)cc(C)c1C[C@H](N)C(=O)N1Cc2ccccc2C[C@H]1C(=O)NCCN(CCNC(=O)[C@@H]1Cc2ccccc2CN1C(=O)[C@@H](N)Cc1c(C)cc(O)cc1C)CCNC(=O)[C@@H]1Cc2ccccc2CN1C(=O)[C@@H](N)Cc1c(C)cc(O)cc1C [compound 15, tris-[H-Dmt-Tic-NH-ethylene]-N], which Kb [2] is on record?
Answer: The Kb was 2.29 nM.

Question: With Cc1cc(O)cc(C)c1C[C@H](N)C(=O)N[C@H]1Cc2ccccc2CN(CC(=O)NCCN(CCNC(=O)CN2Cc3ccccc3C[C@H](NC(=O)[C@@H](N)Cc3c(C)cc(O)cc3C)C2=O)CCNC(=O)CN2Cc3ccccc3C[C@H](NC(=O)[C@@H](N)Cc3c(C)cc(O)cc3C)C2=O)C1=O [compound 16, tris-[H-Dmt-Aba-Gly-NH-ethylene]-N] as the molecule, how does the Kb [2] read?
Answer: The Kb was 22.9 nM.

Question: Which Ki [3] does the source give for Cc1cc(O)cc(C)c1C[C@H](N)C(=O)N[C@H]1Cc2ccccc2CN(CC(=O)NCc2ccccc2)C1=O [compound 6, H-Dmt-Aba-Gly-NH-Bn] here?
Answer: Its Ki is 11 ± 2.3 nM.

Question: And the “Selectivity Kiδ/Kiμ” value [4]?
Answer: Its value is 24.

Question: What about the Ki [4] of the same molecule?
Answer: Its Ki is 0.46 ± 0.07 nM.

Question: And the IC50 [6]?
Answer: The IC50 was 830 ± 70 nM.

Question: And the IC50 [7]?
Answer: Its IC50 is 51 ± 5 nM.

Question: Which Ki [3] does the source give for Cc1cc(O)cc(C)c1C[C@H](N)C(=O)N[C@@H]1Cc2c([nH]c3ccccc23)CN(CC(=O)NCc2ccccc2)C1=O [compound 7, H-Dmt-D-Aia-Gly-NH-Bn] here?
Answer: Its Ki is 160 ± 23 nM.

Question: And the “Selectivity Kiδ/Kiμ” value [4]?
Answer: Its value is 48.

Question: What about the Ki [4] of the same molecule?
Answer: Its Ki is 3.35 ± 0.28 nM.

Question: And the IC50 [6]?
Answer: Its IC50 is 1500 ± 139 nM.

Question: What about the IC50 [7] of the same molecule?
Answer: Its IC50 is 14.9 ± 1.6 nM.

Question: Which “GTPγS (pA2)δ” value [2] does the source give for Cc1cc(O)cc(C)c1C[C@H](N)C(=O)N[C@@H]1Cc2c([nH]c3ccccc23)CN(CC(=O)NCCNC(=O)CN2Cc3[nH]c4ccccc4c3C[C@@H](NC(=O)[C@@H](N)Cc3c(C)cc(O)cc3C)C2=O)C1=O [compound 11, ethylene-bis(H-Dmt-D-Aia-Gly-NH)] here?
Answer: Its value is “unable to diminish the GTPγS binding”.
